# Results as given in patent US8268881B2, “Carboxamide derivatives as muscarinic receptor antagonists” (Pfizer Limited, priority 2005, dated 2012).
# Like-named read-outs stand apart in the source and are kept apart here.
# Molecular target: T1, human muscarinic M3 receptor (Homo sapiens, UniProt P20309)
# T1 construct: expressed in transfected cells
# Assay: hM3 β-Lac potency assay (cell based β-lactamase)
# Details: CHO cells expressing human M3 receptor, NFAT β-lactamase reporter, IC50 converted to Ki by Cheng-Prusoff, read-out: Cell based β-lactamase M3 Ki
# Protocol: M3 potency was determined in CHO-K1 cells transfected with the NFAT-Betalactamase gene. CHO (Chinese Hamster Ovary) cells recombinantly expressing the human muscarinic M3 receptor were transfected with the NFAT_β-Lac_Zeo plasmid.
# The cells were re-suspended at 2×10^5 cells/ml in growth medium (composition as described above). […] Inhibition curves were plotted and IC50 values generated using a 4-parameter sigmoid fit and converted to Ki values using the Cheng-Prusoff correction and the KD value for carbamyl choline in the assay.
# [1] = inhibition of 80 nM carbamyl choline signal, 4 h
# T1 sequence (P20309 whole entry): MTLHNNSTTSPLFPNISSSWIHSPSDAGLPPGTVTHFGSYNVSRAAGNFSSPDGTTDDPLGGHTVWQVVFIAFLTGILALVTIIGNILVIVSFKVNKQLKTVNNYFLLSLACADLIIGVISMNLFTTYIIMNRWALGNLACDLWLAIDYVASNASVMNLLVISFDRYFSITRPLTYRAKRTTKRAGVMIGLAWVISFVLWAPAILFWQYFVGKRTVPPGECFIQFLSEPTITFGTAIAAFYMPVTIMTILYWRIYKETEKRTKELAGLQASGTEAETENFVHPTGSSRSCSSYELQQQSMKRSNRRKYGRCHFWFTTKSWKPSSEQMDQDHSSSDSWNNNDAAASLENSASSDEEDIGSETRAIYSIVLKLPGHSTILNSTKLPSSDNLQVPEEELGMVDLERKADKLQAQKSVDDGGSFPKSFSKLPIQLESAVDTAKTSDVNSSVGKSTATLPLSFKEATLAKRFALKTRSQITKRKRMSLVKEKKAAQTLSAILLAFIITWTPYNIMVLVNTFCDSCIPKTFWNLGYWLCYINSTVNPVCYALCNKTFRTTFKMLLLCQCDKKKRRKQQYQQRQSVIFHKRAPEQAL
SMILES,Ki [1] [nM],Ki ([…]) [nM]
"CC(C)(CCC(C(N)=O)(c1ccccc1)c1ccccc1)N1CC(OCc2ccc(O)cc2)C1 [Example 152, 5-[3-(4-Hydroxy-benzyloxy)-azetidin-1-yl]-5-methyl-2,2-diphenyl-hexanoic acid amide]",0.229,–
"CC(C)(CCC(C(N)=O)(c1ccccc1)c1ccccc1)N1CC[C@H](Oc2cccc(Br)c2)C1 [Example 17, 5-[(3S)-3-(3-Bromophenoxy)pyrrolidin-1-yl]-5-methyl-2,2-diphenylhexanamide]",5.11,–
"COc1ccc(C#N)c(O[C@H]2CCN(C(C)(C)CCC(C(N)=O)(c3ccccc3)c3ccccc3)C2)c1 [Example 69, 5-[(3S)-3-(2-Cyano-5-methoxy-phenoxy)-pyrrolidin-1-yl]-5-methyl-2,2-diphenylhexanamide]",111,–
"CC(C)(CCC(C(N)=O)(c1ccccc1)c1ccccc1)N1CC[C@@H](OCc2ccc(Cl)c(O)c2)C1 [Example 79, 5-[(3R)-3-(4-Chloro-3-hydroxy-benzyloxy)-pyrrolidin-1-yl]-5-methyl-2,2-diphenyl hexanamide]",16.2,–
"CC(C)(CCC(C(N)=O)(c1ccccc1)c1ccccc1)N1CCC(Oc2cc(O)c(Cl)cc2Cl)CC1 [Example 93, 5-[4-(2,4-Dichloro-5-hydroxy-phenoxy)-piperidin-1-yl]-5-methyl-2,2-diphenylhexanoic acid amide]",26.8,–
"CC(C)(CCC(C(N)=O)(c1ccccc1)c1ccccc1)N1CC[C@@H](Oc2ccccc2)C1 [Example 4, 5-Methyl-5-[(3R)-3-phenoxypyrrolidin-1-yl]-2,2-diphenylhexanamide]",1.55,–
"CC(C)(CCC(C(N)=O)(c1ccccc1)c1ccccc1)N1CC(Oc2cc(O)cc(Cl)c2)C1 [Example 124, 5-[3-(3-Chloro-5-hydroxy-phenoxy)-azetidin-1-yl]-5-methyl-2,2-diphenylhexanamide]",0.223,–
"CC(C)(CCC(C(N)=O)(c1ccccc1)c1ccccc1)N1CC(Oc2cccc(O)c2)C1 [Example 108, 5-[3-(3-Hydroxyphenoxy)azetidin-1-yl]-5-methyl-2,2-diphenylhexanamide]",0.201,–
"CC(C)(CCC(C(N)=O)(c1ccccc1)c1ccccc1)N1CC[C@H](Oc2ccc(Cl)c(O)c2)C1 [Example 39, 5-[(3S)-3-(4-Chloro-3-Hydroxy-phenoxy)-pyrrolidin-1-yl]-5-methyl-2,2-diphenylhexanoic acid amide]",1.97,–
"CC(C)(CCC(C(N)=O)(c1ccccc1)c1ccccc1)N1CCC(OCc2cccc(Br)c2)CC1 [Example 91, 5-{4-[(3-Bromobenzyl)oxy]piperidin-1-yl}-5-methyl-2,2-diphenylhexanamide]",22.6,–
"CC(C)(CCC(C(N)=O)(c1ccccc1)c1ccccc1)N1CC(Oc2cc(O)cc(F)c2)C1 [Example 121, 5-{3-(3-Fluoro-5-hydroxy-phenoxy)-azetidin-1-yl}-5-methyl-2,2-diphenylhexanamide]",0.604,–
"COc1ccc(O[C@@H]2CCN(C(C)(C)CCC(C(N)=O)(c3ccccc3)c3ccccc3)C2)cc1Cl [Example 28, 5-[(3R)-3-(3-chloro-4-methoxy-phenoxy)pyrrolidin-1-yl]-5-methyl-2,2-diphenylhexanamide]",47.4,–
"COc1cc(Cl)ccc1O[C@H]1CCN(C(C)(C)CCC(C(N)=O)(c2ccccc2)c2ccccc2)C1 [Example 35, 5-[(3S)-3-(4-Chloro-2-Methoxy-phenoxy)-pyrrolidin-1-yl]-5-methyl-2,2-diphenyl-hexanoic acid amide]",7.28,–
"COc1cccc(OC2CN(C(C)(C)CCC(C#N)(c3ccccc3)c3ccccc3)C2)c1 [Example 99, 5-[3-(3-Methoxyphenoxy)azetidin-1-yl]-5-methyl-2,2-diphenylhexanenitrile]",–,65.7
"CC(C)(CCC(C(N)=O)(c1ccccc1)c1ccccc1)N1CC[C@@H](Oc2cc(O)cc(C(F)(F)F)c2)C1 [Example 49, 5-[(3R)-3-(3-Hydroxy-5-trifluoromethyl-phenoxy)-pyrrolidin-1-yl]-5-methyl-2,2-diphenyl-hexanoic acid amide]",48.5,–
"Cc1cccc(O[C@H]2CCN(C(C)(C)CCC(C(N)=O)(c3ccccc3)c3ccccc3)C2)c1 [Example 14, 5-Methyl-5-[(3S)-3-(3-methylphenoxy)pyrrolidin-1-yl]-2,2-diphenylhexanamide]",1.32,–
"CC(C)(CCC(C(N)=O)(c1ccccc1)c1ccccc1)N1CC[C@@H](Oc2ccc(Cl)c(O)c2)C1 [Example 82, 5-[(3R)-3-(3-hydroxy-4-chloro-phenoxy)-pyrrolidin-1-yl]-5-methyl-2,2-diphenylhexanamide]",7.96,–
"CC(C)(CCC(C(N)=O)(c1ccccc1)c1ccccc1)N1CC[C@@H](Oc2ccc(C(F)(F)F)cc2)C1 [Example 26, 5-[(3R)-3-(4-trifluoromethyl-phenoxy)pyrrolidin-1-yl]-5-methyl-2,2-diphenylhexanamide]",1.67,–
"CC(C)(CCC(C(N)=O)(c1ccccc1)c1ccccc1)N1CC[C@H](Oc2cccc(-c3cccc(O)c3)c2)C1 [Example 19, 5-{(3S)-3-[(3′-Hydroxybiphenyl-3-yl)oxy]pyrrolidin-1-yl}-5-methyl-2,2-diphenylhexanamide]",5.56,–
"NC(=O)C(CCC1(N2CC(Oc3ccc(Cl)c(O)c3)C2)CCCC1)(c1ccccc1)c1ccccc1 [Example 139, 4-{1-[3-(4-Chloro-3-hydroxy-phenoxy)-azetidin-1-yl]-cyclopentyl}-2,2-diphenyl-butyramide]",5.39,–
"CC(C)(CCC(C(N)=O)(c1ccccc1)c1ccccc1)N1CC[C@@H](Oc2cccc(O)c2F)C1 [Example 76, 5-[(3R)-3-(2-Fluoro-3-hydroxy-phenoxy)-pyrrolidin-1-yl]-5-methyl-2,2-diphenylhexanamide]",0.582,–
"CC(C)(CCC(C(N)=O)(c1ccccc1)c1ccccc1)N1CC[C@H](Oc2ccc(F)c(O)c2)C1 [Example 52, 5-[(3S)-3-(4-Fluoro-3-Hydroxy-phenoxy)-pyrrolidin-1-yl]-5-methyl-2,2-diphenyl-hexanoic acid amide]",2.16,–
"COc1cccc(O[C@H]2CCN(C(C)(C)CCC(C(N)=O)(c3ccccc3)c3ccccc3)C2)c1Cl [Example 37, 5-[(3S)-3-(2-Chloro-3-Methoxy-phenoxy)-pyrrolidin-1-yl]-5-methyl-2,2-diphenyl-hexanoic acid amide]",5.01,–
"CC(C)(CCC(C(N)=O)(c1ccccc1)c1ccccc1)N1CC[C@@H](Oc2ccc(O)c(Cl)c2)C1 [Example 72, 5-[(3R)-3-(3-chloro-4-hydroxyphenoxy)pyrrolidin-1-yl]-5-methyl-2,2-diphenylhexanamide]",1.23,–
"COc1cc(O[C@@H]2CCN(C(C)(C)CCC(C(N)=O)(c3ccccc3)c3ccccc3)C2)ccc1Cl [Example 81, 5-[(3R)-3-(3-methoxy-4-chloro-Phenoxy)-pyrrolidin-1-yl]-5-methyl-2,2-diphenylhexanamide]",35.4,–
"CC(C)(CCC(C#N)(c1ccccc1)c1ccccc1)N1CC[C@H](OCc2cccc(-c3ccc(O)cc3)c2)C1 [Example 62, 5-[(3S)-3-[(4′-Hydroxybiphenyl-3-yl)methoxy]-pyrrolidin-1-yl]5-methyl-2,2-diphenylhexanenitrile]",57.4,–
